Patent US12070505B2, “Targeted peptide-drug conjugates” (priority 2021, dated 2024)
Where two headings read alike, the source gives them in different places.

Assays:
[1] = test system: gastric adenocarcinoma cells (AGS); experiment: Cytotoxicity, MTS cell viability assay, AGS; conditions: for reduction of cell survival: 72 h
Protocol: (§1) In Vitro Cytotoxicity Assay of Peptide-Drug Conjugates. […] In brief, CCRF-CEM cells were seeded at 50,000 cells in 0.1 mL per well in 98-well plates. In the case of other cell lines, the cells were seeded at 5,000 cells (0.1 mL per well in 96-well plates). […] Dox (5 μM) was used as a positive control, while water and cell culture medium were used as negative controls. The compounds were dissolved in water; water was used as a negative control to normalize the data. After the incubation period, MTS reagent (20 μL) was added to each well. The incubation was continued for 2 h. Cell viability was then determined by determination of the fluorescence intensity at 490 nm using a SpectraMax M2 microplate spectrophotometer. The percentage of cell viability was then calculated using the following equation: [(OD value of cells treated with the compound)−(OD value of culture medium)]/[(OD value of control cells)−(OD value of culture medium)]×100% (FIGS. 6-9).

CCRF-CEM cells [2] = conditions: 3 h incubation; cited from earlier work
[3] = test system: uterine sarcoma cells (MES-SA/MX2)
Protocol: as §1

SK-OV-3 cells = experiment: Cytotoxicity, MTS cell viability assay, SK-OV-3 (Example 1)
Protocol: as §1

CCRF-CEM cells [4] = experiment: Cytotoxicity, MTS cell viability assay, CCRF-CEM
Protocol: as §1

[5] = Cytotoxicity, MTS assay, normal kidney cells; conditions: pig, LLC-PK1 kidney cells
Protocol: (§2) In Vitro Cytotoxicity Assay of Peptide-Drug Conjugates. The cytotoxicity of the compounds was determined by using human leukemia cell line (CCRF-CEM), human ovarian adenocarcinoma cells (SKOV-3) cells, kidney cell line (LLC-PK1), gastric adenocarcinoma cells (AGS), and heart/myocardium cells (H9C2) to evaluate the toxicity of the generated peptides according to a previously reported procedure (Rahman, A.; et al. Proc. Am. Assoc. Cancer Res. 26:2295-2299, 1985, which is incorporated herein by reference). In brief, CCRF-CEM cells were seeded at 50,000 cells in 0.1 mL per well in 98-well plates. In the case of other cell lines, the cells were seeded at 5,000 cells (0.1 mL per well in 96-well plates). The cells were seeded in medium (RPMI-1640 containing FBS (10%)), 24 h prior to the experiment. The compounds at different concentrations (10-50 μM) were added to each well in triplicate and incubated for 24 and 72 h at 37° C. in a humidified atmosphere of 5% CO2. Dox (5 μM) was used as a positive control, while water and cell culture medium were used as negative controls. The compounds were dissolved in water; water was used as a negative control to normalize the data. After the incubation period, MTS reagent (20 μL) was added to each well. The incubation was continued for 2 h. Cell viability was then determined by determination of the fluorescence intensity at 490 nm using a SpectraMax M2 microplate spectrophotometer.

LLC-PK1 kidney cells = experiment: Cytotoxicity, MTS assay, normal kidney cells; conditions: for Cell Viability (%) after 24 h / Cell Viability (%) after 72 h: normal kidney LLC-PK1
Protocol: as §2

H9C2 cells = experiment: Cytotoxicity, MTS assay, normal heart muscle cells (Example 1)
Protocol: as §2

[6] = as above; conditions: rat, H9C2 heart/myocardium cells
Protocol: as §2

## N=C(N)NCCC[C@@H]1NC(=O)[C@H](CCCCNC(=O)[C@H](Cc2c[nH]c3ccccc23)NC(=O)[C@H](Cc2c[nH]c3ccccc23)NC(=O)[C@H](Cc2c[nH]c3ccccc23)NC(=O)[C@H](Cc2c[nH]c3ccccc23)NC(=O)[C@H](Cc2c[nH]c3ccccc23)NC(=O)[C@H](Cc2c[nH]c3ccccc23)NC(=O)[C@H](Cc2c[nH]c3ccccc23)NC(=O)CCN)NC(=O)[C@H](CCCNC(=N)N)NC(=O)[C@H](CCCNC(=N)N)NC(=O)[C@H](CCCNC(=N)N)NC(=O)[C@H](CCCNC(=N)N)NC1=O [[R5K]W7A]
[1]; 5 μM
  Cell Viability (%) after 24 h: 103 ± 3%
  Cell Viability (%) after 72 h: 108 ± 1%
[1]; 10 μM
  Cell Viability (%) after 24 h: 104 ± 1%
  Cell Viability (%) after 72 h: 94 ± 2%
[1]; 25 μM
  Cell Viability (%) after 24 h: 105 ± 2%
  Cell Viability (%) after 72 h: 76 ± 1%
  reduction of cell survival: 24%
[1]; 50 μM
  Cell Viability (%) after 24 h: 79 ± 1%
  Cell Viability (%) after 72 h: 21 ± 1%
  reduction of cell survival: 87%
[1]; 5 and 10 μM, 24 and 72 h
  cytotoxicity: did not generate any significant cytotoxicity
CCRF-CEM cells [2]
  fold improved uptake of F′-GpYEEI: approximately 48 fold
  fold improved uptake of emtricitabine (F′-FTC): ~27 fold
  fold improved uptake of stavudine (F′-d4T): ~36 fold
[3]; 10 μM
  Cell Viability (%) after 72 h: 110 ± 4%
[3]; 25 μM
  Cell Viability (%) after 72 h: 19 ± 2%
[3]; 25 μM, 72 h
  reduction of cell viability: ~80%
SK-OV-3 cells; 5 μM
  Cell Viability (%) after 24 h: 79 ± 1%
  Cell Viability (%) after 72 h: 102 ± 8%
SK-OV-3 cells; 10 μM
  Cell Viability (%) after 24 h: 76 ± 0%
  Cell Viability (%) after 72 h: 101 ± 1%
SK-OV-3 cells; 25 μM
  Cell Viability (%) after 24 h: 70 ± 6%
  Cell Viability (%) after 72 h: 81 ± 3%
SK-OV-3 cells; 25 μM, 72 h
  reduction of cell viability / cytotoxicity: 19%
SK-OV-3 cells; 5, 10, and 25 μM, 24 h
  cytotoxicity of peptide alone: 21-30%
CCRF-CEM cells [4]; 5 μM
  Cell Viability (%) after 24 h: 90 ± 1%
  Cell Viability (%) after 72 h: 68 ± 4%
CCRF-CEM cells [4]; 10 μM
  Cell Viability (%) after 24 h: 68 ± 4%
  Cell Viability (%) after 72 h: 73 ± 6%
CCRF-CEM cells [4]; 25 μM
  Cell Viability (%) after 24 h: 32 ± 0%
  Cell Viability (%) after 72 h: 24 ± 9%
CCRF-CEM cells [4]; 25 μM, 24 h
  reduction of cell viability: 68%
CCRF-CEM cells [4]; concentrations other than 25 μM, even after 72 h
  cytotoxicity of peptide alone: 10-22%
[5]
  viability at 24 h, 5 µM: 94 ± 1%
  viability at 24 h, 10 µM: 86 ± 1%
  viability at 24 h, 25 µM: 82 ± 1%
  viability at 24 h, 50 µM: 71 ± 1%
  viability at 72 h, 5 µM: 98 ± 3%
  viability at 72 h, 10 µM: 100 ± 1%
  viability at 72 h, 25 µM: 97 ± 1%
  viability at 72 h, 50 µM: 97 ± 3%
LLC-PK1 kidney cells; LLC-PK1, 5-50 μM, 72 h
  cytotoxicity: did not generate any significant cytotoxicity
LLC-PK1 kidney cells; 5 μM
  Cell Viability (%) after 24 h: 94 ± 1%
  Cell Viability (%) after 72 h: 98 ± 3%
LLC-PK1 kidney cells; 10 μM
  Cell Viability (%) after 24 h: 86 ± 1%
  Cell Viability (%) after 72 h: 100 ± 1%
H9C2 cells; normal heart H9C2, 10 μM
  Cell Viability (%) after 24 h: 101 ± 0%
[6]
  viability at 72 h, 10 µM: 105 ± 3%

## COc1cccc2c1C(=O)c1c(O)c3c(c(O)c1C2=O)C[C@@](O)(C(=O)CO)C[C@@H]3O[C@H]1C[C@H](NC(=N)CCCSSC[C@H](NC(C)=O)C(=O)N[C@@H](Cc2c[nH]c3ccccc23)C(=O)N[C@@H](Cc2c[nH]c3ccccc23)C(=O)N[C@@H](Cc2c[nH]c3ccccc23)C(=O)N[C@@H](Cc2c[nH]c3ccccc23)C(=O)N[C@@H](Cc2c[nH]c3ccccc23)C(=O)N[C@@H](Cc2c[nH]c3ccccc23)C(=O)N[C@@H](Cc2c[nH]c3ccccc23)C(=O)NCCCC[C@@H]2NC(=O)[C@H](CCCNC(=N)N)NC(=O)[C@H](CCCNC(=N)N)NC(=O)[C@H](CCCNC(=N)N)NC(=O)[C@H](CCCNC(=N)N)NC(=O)[C@H](CCCNC(=N)N)NC2=O)[C@H](O)[C@H](C)O1 [[R5K]W7C-S-S-Dox]
H9C2 cells; H9C2, 5-10 and 25 μM, any incubation time
  cytotoxicity: did not show any cytotoxicity
[6]
  viability at 24 h, 5 µM: 98 ± 1%
  viability at 24 h, 10 µM: 91 ± 1%
  viability at 24 h, 25 µM: 92 ± 1%
  viability at 72 h, 5 µM: 106 ± 1%
  viability at 72 h, 10 µM: 117 ± 1%
  viability at 72 h, 25 µM: 105 ± 2%
  viability at 96 h, 5 µM: 104 ± 1%
  viability at 96 h, 10 µM: 113 ± 3%
  viability at 96 h, 25 µM: 108 ± 1%
